Source: patent publication US20240270751A1, “Pyrazolopyridinone Compounds” (BeiGene Ltd., priority 2021, published 2024)

How the values were obtained:
[1] = target: DGKζ (Homo sapiens (Human), UniProt Q13574); assay: Biochemical DGK IC50 assay, DGKζ ADP-Glo assay; details: 0.5 nM enzyme, 140 μM ATP, 80 μM DAG; read-out: DGKζ ADP-Glo assay IC50
In short: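 ADP formation measured by ADP-Glo luminescence, with test compounds at final 1.55–10000 nM or 23.3–150000 nM. Enzyme: purified full-length human DGKζ from Sf9 insect cells; substrate: DAG/PS micelles in 25 mM HEPES pH 7.0, 0.5 mM EDTA, octyl glucoside.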

[2] = target: DGKα (Homo sapiens (Human), UniProt P23743); assay: Biochemical DGK IC50 assay, DGKα ADP-Glo assay; details: 7.5 nM enzyme, 140 μM ATP, 80 μM DAG
In short: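 Compounds at final 1.55˜10000 nM or 23.3˜150000 nM were tested against full-length DGKα. Substrate was lipid micelles of DAG and PS resuspended in 25 mM HEPES pH 7.0 with 0.5 mM EDTA and 160 mM octyl β-D-glucopyranoside. ADP formed was detected by ADP-Glo.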

Sequence of DGKα (P23743 whole entry): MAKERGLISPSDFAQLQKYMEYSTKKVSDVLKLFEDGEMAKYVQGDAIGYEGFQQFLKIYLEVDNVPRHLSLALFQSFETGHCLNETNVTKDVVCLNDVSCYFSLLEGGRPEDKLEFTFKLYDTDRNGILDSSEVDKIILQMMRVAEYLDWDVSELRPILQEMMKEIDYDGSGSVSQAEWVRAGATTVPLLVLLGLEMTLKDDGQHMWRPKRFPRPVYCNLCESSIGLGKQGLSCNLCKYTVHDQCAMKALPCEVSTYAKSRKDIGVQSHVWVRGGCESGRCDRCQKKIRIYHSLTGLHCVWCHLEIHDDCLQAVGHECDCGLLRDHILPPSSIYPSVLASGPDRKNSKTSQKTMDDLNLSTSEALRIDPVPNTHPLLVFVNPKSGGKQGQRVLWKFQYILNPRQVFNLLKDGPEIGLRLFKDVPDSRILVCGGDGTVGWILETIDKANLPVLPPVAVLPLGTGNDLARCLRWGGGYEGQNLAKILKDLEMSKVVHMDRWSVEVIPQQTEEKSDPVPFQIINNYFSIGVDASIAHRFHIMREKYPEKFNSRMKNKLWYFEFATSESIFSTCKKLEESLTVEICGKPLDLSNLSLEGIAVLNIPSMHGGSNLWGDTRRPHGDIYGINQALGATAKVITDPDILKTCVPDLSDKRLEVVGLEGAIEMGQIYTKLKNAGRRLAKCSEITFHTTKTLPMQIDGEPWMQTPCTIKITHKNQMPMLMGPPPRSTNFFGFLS
Sequence of DGKζ (Q13574 other isoform, or with tags, fused parts or gaps): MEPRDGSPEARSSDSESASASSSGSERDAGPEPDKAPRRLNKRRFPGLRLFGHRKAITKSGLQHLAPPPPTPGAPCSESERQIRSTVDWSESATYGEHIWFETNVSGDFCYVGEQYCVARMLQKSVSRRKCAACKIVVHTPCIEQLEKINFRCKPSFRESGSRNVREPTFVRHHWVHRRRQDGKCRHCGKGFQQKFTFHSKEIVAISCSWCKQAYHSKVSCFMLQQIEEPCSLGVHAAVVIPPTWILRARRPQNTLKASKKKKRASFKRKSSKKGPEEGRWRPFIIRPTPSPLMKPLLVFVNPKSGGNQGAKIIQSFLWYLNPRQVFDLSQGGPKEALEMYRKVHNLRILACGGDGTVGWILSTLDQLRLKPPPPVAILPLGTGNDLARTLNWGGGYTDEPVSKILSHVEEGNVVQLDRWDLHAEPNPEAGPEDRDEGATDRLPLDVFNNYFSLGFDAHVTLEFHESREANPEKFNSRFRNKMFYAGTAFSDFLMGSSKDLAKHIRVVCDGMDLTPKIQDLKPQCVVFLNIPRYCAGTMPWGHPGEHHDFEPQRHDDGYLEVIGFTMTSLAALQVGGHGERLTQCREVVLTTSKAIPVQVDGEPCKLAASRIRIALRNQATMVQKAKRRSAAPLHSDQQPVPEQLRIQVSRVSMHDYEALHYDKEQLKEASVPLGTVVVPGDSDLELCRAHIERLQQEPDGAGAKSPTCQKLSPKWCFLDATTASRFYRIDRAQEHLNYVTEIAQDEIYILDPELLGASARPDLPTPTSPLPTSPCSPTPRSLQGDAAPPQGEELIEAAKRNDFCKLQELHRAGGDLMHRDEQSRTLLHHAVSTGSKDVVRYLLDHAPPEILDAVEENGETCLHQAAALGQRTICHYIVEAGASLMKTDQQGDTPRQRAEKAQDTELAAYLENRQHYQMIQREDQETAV

| SMILES | IC50 [1] [µM] | IC50 [2] [µM] |
| --- | --- | --- |
| CC[C@H]1CN(C(C)c2nccn2CC)[C@H](CC)CN1c1cc(=O)n(C)c2cn(CC#N)nc12 (some centres unmarked) [Compound A174] | 57.9 | 105 |
| CC(c1ccc2nccnc2c1)N1CCN(c2cc(=O)n(C)c3cn(CC#N)nc23)C[C@@H]1C (some centres unmarked) [Compound A178] | 6.9 | > 10 |
| CCC1CN(c2c(Br)c(=O)n(C)c3cn(CC#N)nc23)CCN1[C@@H](C)c1ccc2nccnc2c1 (stereo partly drawn) [Compound A179a, 2-(6-bromo-7-((2S,5R)-3-ethyl-4-(1-(quinoxalin-6-yl)ethyl)piperazin-1-yl)-4-methyl-5-oxo-4,5-dihydro-2H-pyrazolo[4,3-b]pyridin-2-yl)acetonitrile] | 7.88 | > 10 |
| CC(c1ccc2nccnc2c1)N1CCN(c2cc(=O)n(C)c3cn(CC#N)nc23)CC1CO (centres unmarked) [Compound A184] | 6.01 | > 10 |
| CC[C@@H]1CN(c2c(C#N)c(=O)n(CC#N)c3cn(CC#N)nc23)[C@@H](C)CN1C(C)c1ccc2nccnc2c1 (stereo partly drawn) [Compound A189, 2,2′-(6-cyano-7-((2S,5R)-5-ethyl-2-methyl-4-(1-(quinoxalin-6-yl)ethyl)piperazin-1-yl)-5-oxo-2H-pyrazolo[4,3-b]pyridine-2,4(5H)-diyl)diacetonitrile] | 3.1 | > 10 |
| CC[C@H]1CN(C(C)c2nc3ccccc3n2C(C)C)[C@H](CC)CN1c1cc(=O)n(C)c2cn(CC#N)nc12 (some centres unmarked) [Compound A193] | 5.73 | > 10 |
| CC[C@@H]1CN(c2cc(=O)n(C)c3cn(CC#N)nc23)[C@@H](CC)CN1C(=O)c1cccc(C(F)(F)F)c1 [Compound A206, 2-(7-((2S,5R)-2,5-diethyl-4-(3-(trifluoromethyl)benzoyl)piperazin-1-yl)-4-methyl-5-oxo-4,5-dihydro-2H-pyrazolo[4,3-b]pyridin-2-yl)acetonitrile] | 2.27 | 2.59 |
| CC[C@H]1CN(C(C)c2cccc(=O)n2CC)[C@H](CC)CN1c1cc(=O)n(C)c2cn(CC#N)nc12 (some centres unmarked) [Compound A207] | 4.05 | > 10 |
| CC[C@H]1CN(C(C)c2cn(CC)c(C)n2)[C@H](CC)CN1c1cc(=O)n(C)c2cn(CC#N)nc12 (some centres unmarked) [Compound A208] | > 10 | > 10 |
| CC[C@H]1CN(C(C)c2cc(Cl)nn2CC)[C@H](CC)CN1c1cc(=O)n(C)c2cn(CC#N)nc12 (some centres unmarked) [Compound A212] | 1.13 | > 10 |
| CC[C@H]1CN(C(C)c2nc3ccccc3n2CCO)[C@H](CC)CN1c1cc(=O)n(C)c2cn(CC#N)nc12 (some centres unmarked) [Compound A214] | 3.43 | > 10 |
| CC[C@H]1CN(C(C)c2nn(CC)cc2C)[C@H](CC)CN1c1cc(=O)n(C)c2cn(CC#N)nc12 (some centres unmarked) [Compound A216] | 2.37 | > 10 |
| CC[C@H]1CN(C(C)c2cnc(C)n2CC)[C@H](CC)CN1c1cc(=O)n(C)c2cn(CC#N)nc12 (some centres unmarked) [Compound A219] | > 10 | > 10 |
| CC(C1CCCCC1)N1C[C@H](C)N(c2cc(=O)n(C)c3cn(CC#N)nc23)C[C@H]1C (some centres unmarked) [Compound A223] | > 10 | > 10 |
| CC[C@H]1CN(C(C)c2cnc(Cl)cc2C(F)(F)F)[C@H](CC)CN1c1cc(=O)n(C)c2cn(CC#N)nc12 (some centres unmarked) [Compound A226] | 2.29 | 8.43 |
| CC[C@H]1CN(C(C)c2ccnn2CC(F)F)[C@H](CC)CN1c1cc(=O)n(C)c2c[nH]nc12 (stereo partly drawn) [Compound A228, 7-((2S,5R)-4-(1-(1-(2,2-difluoroethyl)-1H-pyrazol-5-yl)ethyl)-2,5-diethylpiperazin-1-yl)-4-methyl-2,4-dihydro-5H-pyrazolo[4,3-b]pyridin-5-one] | 9.2 | > 10 |
| CC[C@H]1CN(C(C)c2cn(C)nc2C(F)(F)F)[C@H](CC)CN1c1cc(=O)n(C)c2cn(CC#N)nc12 (stereo partly drawn) [Compound A232, 2-(7-((2S,5R)-2,5-diethyl-4-(1-(1-methyl-3-(trifluoromethyl)-1H-pyrazol-4-yl)ethyl)piperazin-1-yl)-4-methyl-5-oxo-4,5-dihydro-2H-pyrazolo[4,3-b]pyridin-2-yl)acetonitrile] | 3.11 | 8.49 |
| CC[C@H]1CN(C(C)c2cnc(C)cc2C(F)(F)F)[C@H](CC)CN1c1cc(=O)n(C)c2cn(CC#N)nc12 (some centres unmarked) [Compound A235] | 5.38 | > 10 |
| CC[C@H]1CN(C(C)c2cncn2CC(F)F)[C@H](CC)CN1c1cc(=O)n(C)c2cn(CC#N)nc12 (some centres unmarked) [Compound A237] | 1.35 | > 10 |
| CC[C@H]1CN(C(C)c2nn(CC)cc2C#N)[C@H](CC)CN1c1cc(=O)n(C)c2cn(CC#N)nc12 (stereo partly drawn) [Compound A240, 3-(1-((2R,5S)-4-(2-(cyanomethyl)-4-methyl-5-oxo-4,5-dihydro-2H-pyrazolo[4,3-b]pyridin-7-yl)-2,5-diethylpiperazin-1-yl)ethyl)-1-ethyl-1H-pyrazole-4-carbonitrile] | 2.01 | 0.948 |

Molecules with a lower IC50 [1], results first:

| IC50 [1] [µM] | IC50 [2] [µM] | SMILES |
| --- | --- | --- |
| 0.887 | > 10 | CC[C@H]1CN(C(C)c2ccc(F)cc2OC(F)(F)F)[C@H](CC)CN1c1cc(=O)n(C)c2cn(CC#N)nc12 (stereo partly drawn) [Compound A170, 2-(7-((2S,5R)-2,5-diethyl-4-(1-(4-fluoro-2-(trifluoromethoxy)phenyl)ethyl)piperazin-1-yl)-4-methyl-5-oxo-4,5-dihydro-2H-pyrazolo[4,3-b]pyridin-2-yl)acetonitrile] |
| 0.305 | > 10 | CC[C@H]1CN(C(C)c2ccc(F)cc2C2CC2)[C@H](CC)CN1c1cc(=O)n(C)c2cn(CC#N)nc12 (some centres unmarked) [Compound A175] |
| 0.093 | 5.67 | CC[C@H]1CN(C(C)c2cc3ccccc3n2CC)[C@H](CC)CN1c1cc(=O)n(C)c2cn(CC#N)nc12 (some centres unmarked) [Compound A176] |
| 0.059 | 6.37 | CC#CCn1cc2c(n1)c(N1C[C@@H](CC)N(C(C)c3nc4ccccc4n3CC)C[C@@H]1CC)cc(=O)n2C (some centres unmarked) [Compound A186] |
| 0.786 | > 10 | CC[C@H]1CN(C(C)c2ccc(F)cc2C(C)O)[C@H](CC)CN1c1cc(=O)n(C)c2cn(CC#N)nc12 (some centres unmarked) [Compound A188] |
| 0.059 | > 10 | CCCn1c(C(C)N2C[C@H](CC)N(c3cc(=O)n(C)c4cn(CC#N)nc34)C[C@H]2CC)nc2ccccc21 (stereo partly drawn) [Compound A192, 2-(7-((2S,5R)-2,5-diethyl-4-(1-(1-propyl-1H-benzo[d]imidazol-2-yl)ethyl)piperazin-1-yl)-4-methyl-5-oxo-4,5-dihydro-2H-pyrazolo[4,3-b]pyridin-2-yl)acetonitrile] |
| 0.151 | 63.7 | CCc1cc(F)ccc1C(C)N1C[C@H](CC)N(c2cc(=O)n(C)c3cn(CC#N)nc23)C[C@H]1CC (stereo partly drawn) [Compound A205, 2-(7-((2S,5R)-2,5-diethyl-4-(1-(2-ethyl-4-fluorophenyl)ethyl)piperazin-1-yl)-4-methyl-5-oxo-4,5-dihydro-2H-pyrazolo[4,3-b]pyridin-2-yl)acetonitrile] |
| 0.05 | 21.6 | Cc1c2c(nn1CC#N)c(N1C[C@@H](C)N(C(C)c3ccc4nccnc4c3)C[C@@H]1C)cc(=O)n2C (stereo partly drawn) [Compound A209, 2-(7-((2S,5R)-2,5-dimethyl-4-(1-(quinoxalin-6-yl)ethyl)piperazin-1-yl)-3,4-dimethyl-5-oxo-4,5-dihydro-2H-pyrazolo[4,3-b]pyridin-2-yl)acetonitrile] |
| 0.369 | 11.2 | CC[C@H]1CN(C(C)c2cc(C(F)(F)F)nn2CC)[C@H](CC)CN1c1cc(=O)n(C)c2cn(CC#N)nc12 (some centres unmarked) [Compound A210] |
| 0.234 | 2.76 | CC[C@H]1CN(C(C)c2cc(C(F)(F)F)nn2CC)[C@H](CC)CN1c1cc(=O)n(C)c2cn(CC#N)nc12 (some centres unmarked) [Compound A211] |
| 0.378 | > 10 | CC[C@H]1CN(C(C)c2cccnc2C(F)(F)F)[C@H](CC)CN1c1cc(=O)n(C)c2cn(CC#N)nc12 (some centres unmarked) [Compound A217] |
| 0.099 | 7.45 | CC[C@@H]1CN(c2cc(=O)n(C)c3cn(CC#N)nc23)[C@@H](COC)CN1C(C)c1ccc2nccnc2c1 (stereo partly drawn) [Compound A225, 2-(7-((2R,5R)-5-ethyl-2-(methoxymethyl)-4-(1-(quinoxalin-6-yl)ethyl)piperazin-1-yl)-4-methyl-5-oxo-4,5-dihydro-2H-pyrazolo[4,3-b]pyridin-2-yl)acetonitrile] |
| 0.166 | 24.1 | CC[C@@H]1CN(c2cc(=O)n(C)c3cn(CC#N)nc23)[C@@H](CO)CN1C(C)c1ccc2nccnc2c1 (stereo partly drawn) [Compound A229, 2-(7-((2R,5R)-5-ethyl-2-(hydroxymethyl)-4-(1-(quinoxalin-6-yl)ethyl)piperazin-1-yl)-4-methyl-5-oxo-4,5-dihydro-2H-pyrazolo[4,3-b]pyridin-2-yl)acetonitrile] |
| 0.033 | 6.98 | CC[C@H]1CN(C(C)c2cnn(C)c2C(F)(F)F)[C@H](CC)CN1c1cc(=O)n(C)c2cn(CC#N)nc12 (stereo partly drawn) [Compound A233, 2-(7-((2S,5R)-2,5-diethyl-4-(1-(1-methyl-5-(trifluoromethyl)-1H-pyrazol-4-yl)ethyl)piperazin-1-yl)-4-methyl-5-oxo-4,5-dihydro-2H-pyrazolo[4,3-b]pyridin-2-yl)acetonitrile] |
| 0.159 | 7.33 | CC[C@H]1CN(C(C)c2cnn(C)c2C(F)F)[C@H](CC)CN1c1cc(=O)n(C)c2cn(CC#N)nc12 (some centres unmarked) [Compound A234] |
| 0.391 | > 10 | CC[C@H]1CN(C(C)c2cnc(C(F)(F)F)n2CC)[C@H](CC)CN1c1cc(=O)n(C)c2cn(CC#N)nc12 (some centres unmarked) [Compound A239] |
| 0.27 | 6.43 | CC[C@@H]1CN(c2cc(=O)n(C)c3cn(CC#N)nc23)[C@@H](CC)CN1Cc1ccc(F)cc1C(F)(F)F [Compound A241] |
